Molecules are shown by their SMILES. In brackets after ≈: the same amount, converted by molar mass. Counter-ions that a name gives are not always drawn. Like-named read-outs stand apart in the source and are kept apart here. Where only a bound is given, the exact number is not on record here.

One assay deals with C. albicans ATCC 64124. The assay can be described thus: microbe, parasite or virus in culture. Particulars: for Activity in gels with 1.0% denture adhesive compared with gels without / Minimal inhibitory concentration (MIC): C. albicans ATCC 64124; for Activity in gels with 1.0% denture adhesive compared with gels without: result in words, Tukey HSD, 0.05 level; for MIC: Candida albicans. Here is the method: (§1) C. albicans strains ATCC 64124 and HMV4C were used and cultivated as previously described. Their identities were verified (State Hygienic Laboratory, University of Iowa Research Park, Coralville, IA, USA). These cultures were adjusted to contain 1.2–3.7 × 10^6 CFU/mL in Roswell Park Memorial Institute (RPMI) 1640 medium.
(§2) The denture adhesive used was a standard, over-the-counter gel containing poly sodium-calcium mixed partial salt, petrolatum, cellulose gum, and mineral oil and was prepared as previously described. Denture adhesive was too viscous to use directly and was diluted to 1.0% for incorporation into the radial diffusion assay.
(§3) Each agent was reconstituted in distilled water with 0.01% acetic acid for resuspension to keep the agent in solution. Two-fold dilutions were prepared.
(§4) The radial diffusion assays were performed as described with the following unique modifications. Underlay agarose gels were prepared with and without 1.0% denture adhesive in square petri dishes (Electron Microscopy Sciences, Hatfield, PA, USA). Plates without 1.0% adhesive contained 12.5 mL of 10.0 mM sodium phosphate buffer adjusted to pH 7.4, 12.5 mL of 2.0% agarose (Agarose LE, Roche Diagnostics Corporation, Indianapolis, IN, USA) in 10.0 mM sodium phosphate adjusted to pH 7.4, and 1.0 mL of C. albicans culture per plate. Plates with 1.0% adhesive contained 12.5 mL of 2.0% dental adhesive in 10.0 mM sodium phosphate adjusted to pH 7.4, 12.5 mL 2.0% agarose (Agarose LE, Roche Diagnostics Corporation, Indianapolis, IN, USA) in 10.0 mM sodium phosphate adjusted to pH 7.4, and 1.0 mL of C. albicans culture. Wells of 2.0 mm in diameter were created and filled with 5.0 µL of AMP or antifungal antibiotic dilution (n = three replications per test). A blank of 0.01% acetic acid in distilled water was also included. The plates were incubated at 37 °C for 3 h. After incubation, 10.0 mL of overlay containing 1.0% agarose in 10.0 mM phosphate buffer with 6.0% RPMI 1640, was added to each plate. The plates were incubated at 37 °C overnight. At 24 h, antimicrobial activity was determined by measuring the zone of clearance around the center of each well and extrapolating MIC as described.
(§5) When MICs fell outside the range of the assay, we considered the MIC to be equal to the highest concentration used in the assay. […] One-way fixed-effects ANOVA models were fit to the µM MIC values. Pairwise group comparisons were conducted using the method of Tukey’s Honest Significant Differences (HSD). A 0.05 level was used to determine statistically significant differences. All analyses were conducted using JMP (Version 10.0, SAS, Cary, NC, USA).

In another assay the test system is C. albicans HMV4C. Description: microbe, parasite or virus in culture. Particulars: radial diffusion; for Activity in gels with 1.0% denture adhesive compared with gels without / Minimal inhibitory concentration (MIC): C. albicans HMV4C; for Activity in gels with 1.0% denture adhesive compared with gels without: result in words, Tukey HSD, 0.05 level; for MIC: Candida albicans, HMV4C; for MIC / Minimal inhibitory concentration (MIC): mean (standard error, n = 3). Here is the method:
as §1, §2, §3, §4, §5

A further assay has as its system Candida albicans. To be noted: broth microdilution, p < 0.05; cited from earlier work. The source says:
Candida species infections can cause complications for individuals with dentures, such as denture stomatitis.
(In broth dilution the organism is exposed to a series of concentrations in liquid medium.)

The mark [1] stands for this setting: ATCC64124, 24 h, pH 7.4, read-out: Minimal inhibitory concentration (MIC), C. albicans ATCC 64124, Adhesive (1.0% denture adhesive in gel), radial diffusion, pH 7.4, 37 °C, read at 24 h, mean (standard error, n = 3).
The mark [2] stands for this setting: ATCC64124, 24 h, pH 7.4, read-out: Minimal inhibitory concentration (MIC), C. albicans ATCC 64124, No Adhesive, radial diffusion, pH 7.4, 37 °C, read at 24 h, mean (standard error, n = 3).
Setting [3] is: ATCC64124, read-out: Minimal inhibitory concentration (MIC), C. albicans ATCC 64124, Adhesive (1.0% denture adhesive in gel), radial diffusion, mean (standard error, n = 3).
Where [4] appears, read: ATCC64124, read-out: Minimal inhibitory concentration (MIC), C. albicans ATCC 64124, No Adhesive, radial diffusion, mean (standard error, n = 3).
[5] abbreviates: 24 h, pH 7.4, read-out: Minimal inhibitory concentration (MIC), C. albicans HMV4C, Adhesive (1.0% denture adhesive in gel), pH 7.4, 37 °C, read at 24 h.
[6] abbreviates: 24 h, pH 7.4, read-out: Minimal inhibitory concentration (MIC), C. albicans HMV4C, No Adhesive, agarose in 10.0 mM sodium phosphate pH 7.4, 37 °C, read at 24 h.
Where [7] appears, read: read-out: Minimal inhibitory concentration (MIC), C. albicans HMV4C, Adhesive (1.0% denture adhesive in gel).
Where [8] appears, read: read-out: Minimal inhibitory concentration (MIC), C. albicans HMV4C, No Adhesive.
Setting [9] is: Adhesive (1.0% denture adhesive in gel), radial diffusion, pH 7.4, 37 °C, read at 24 h, mean (standard error, n = 3).
The mark [10] stands for this setting: Adhesive (1.0% denture adhesive in gel), radial diffusion, mean (standard error, n = 3).
[11] abbreviates: No Adhesive, radial diffusion, pH 7.4, 37 °C, read at 24 h, mean (standard error, n = 3).
The mark [12] stands for this setting: No Adhesive, radial diffusion, mean (standard error, n = 3).
Where [13] appears, read: Adhesive (1.0% denture adhesive in gel), pH 7.4, 37 °C, read at 24 h.
The mark [14] stands for this setting: Adhesive (1.0% denture adhesive in gel).
[15] abbreviates: No Adhesive, agarose in 10.0 mM sodium phosphate pH 7.4, 37 °C, read at 24 h.

As to `C[C@@H]1[C@H](O)[C@@H](C)/C=C/C=C/C=C/C=C/C=C/C=C/C=C/[C@H](O[C@@H]2O[C@H](C)[C@@H](O)[C@H](N)[C@@H]2O)C[C@@H]2O[C@](O)(C[C@@H](O)C[C@@H](O)[C@H](O)CC[C@@H](O)C[C@@H](O)CC(=O)O[C@H]1C)C[C@H](O)[C@H]2C(=O)O` [Amphotericin B], the “Activity in gels with 1.0% denture adhesive compared with gels without” value with C. albicans ATCC 64124 (radial diffusion) and in the assay on C. albicans HMV4C was “same” each time. Moreover, the MIC in the assay with C. albicans ATCC 64124 (setting [1]) was 16.6 µg/mL; in the assay with C. albicans ATCC 64124 (setting [2]) it was 6 µg/mL; in the assay on C. albicans ATCC 64124 (setting [3]), 18 µM; in the assay with C. albicans ATCC 64124 (setting [4]), 6.5 µM; in the assay with C. albicans HMV4C (setting [5]), 6.2 µg/mL; with C. albicans HMV4C (setting [6]), 5.4 µg/mL. Besides, the MIC is 6.7 µM in the assay with C. albicans HMV4C (setting [7]) and 5.8 µM in the assay on C. albicans HMV4C (setting [8]). Further, in the assay with Candida albicans, the “Loss of antimicrobial activity in 1.0% denture adhesive” value (“Loss … in 1.0% denture adhesive” below) is “did not”.

As to `[H]/N=C(\N/C(=N/[H])NCCCCCCNC(=N)NC(=N)Nc1ccc(Cl)cc1)Nc1ccc(Cl)cc1` [Chlorhexidine dihydrochloride], the “Activity in gels with 1.0% denture adhesive compared with gels without” value in the assay with C. albicans ATCC 64124 (radial diffusion) and in the assay with C. albicans HMV4C was “same” each time. In addition, the MIC stood at 4.6 µg/mL with C. albicans ATCC 64124 (setting [1]); 6.9 µg/mL in the assay with C. albicans ATCC 64124 (setting [2]); 8 µM in the assay on C. albicans ATCC 64124 (setting [3]); 11.9 µM in the assay with C. albicans ATCC 64124 (setting [4]); 11.1 µg/mL in the assay with C. albicans HMV4C (setting [5]); 5.7 µg/mL in the assay on C. albicans HMV4C (setting [6]). Besides, the MIC with C. albicans HMV4C (setting [7]) was 19.2 µM; in the assay with C. albicans HMV4C (setting [8]), 9.9 µM. In addition, the “Loss … in 1.0% denture adhesive” value with Candida albicans is listed as “did not”.

As for `N=C(NCCCCCCNC(=N)NC(=N)Nc1ccc(Cl)cc1)NC(=N)Nc1ccc(Cl)cc1.O=C(O)[C@H](O)[C@@H](O)[C@H](O)[C@H](O)CO.O=C(O)[C@H](O)[C@@H](O)[C@H](O)[C@H](O)CO` [Chlorhexidine gluconate], the “Minimal inhibitory concentration (MIC)” value with C. albicans ATCC 64124 (setting [9]) was 81.6 (3.2) µg/mL; with C. albicans ATCC 64124 (setting [10]) it was 90.9 (3.6) µM; in the assay on C. albicans ATCC 64124 (setting [11]), 4.1 (0.2) µg/mL; with C. albicans ATCC 64124 (setting [12]) it was 4.6 (0.2) µM; with C. albicans HMV4C (setting [13]) it was 0.7 (0.4) µg/mL; in the assay on C. albicans HMV4C (setting [14]), 0.8 (0.4) µM. Also, the “Minimal inhibitory concentration (MIC)” value is reported as 6.3 (0.1) µg/mL with C. albicans HMV4C (setting [15]) and 7.0 (0.1) µM in the assay with C. albicans HMV4C (No Adhesive). Moreover, the “Activity in gels with 1.0% denture adhesive compared with gels without” value in the assay on C. albicans ATCC 64124 (radial diffusion) is recorded as “diminished antimicrobial activity”; in the assay with C. albicans HMV4C, “same antimicrobial activity”. Moreover, in the assay on Candida albicans, the “Loss … in 1.0% denture adhesive” value was “did not”.

Turning to `OC(Cn1cncn1)(Cn1cncn1)c1ccc(F)cc1F` [Fluconazole], the “Minimal inhibitory concentration (MIC)” value in the assay on C. albicans ATCC 64124 (in both gels with or without 1.0% denture adhesive) was 3265.1 µM (≈ 1000 µg/mL). Further, the “Activity in gels with 1.0% denture adhesive compared with gels without” value in the assay with C. albicans ATCC 64124 (radial diffusion) and in the assay with C. albicans HMV4C was “same” each time. Also, the MIC with C. albicans ATCC 64124 (setting [1]) is over 1000 µg/mL; in the assay on C. albicans ATCC 64124 (setting [2]) it was over 1000 µg/mL; in the assay with C. albicans ATCC 64124 (setting [3]), over 3270 µM; in the assay on C. albicans ATCC 64124 (setting [4]), over 3270 µM; with C. albicans ATCC 64124 (ATCC64124, read-out: Minimal inhibitory concentration (MIC), C. albicans ATCC 64124, in both gels with or without 1.0% denture adhesive), over 1000 µg/mL; with C. albicans HMV4C (setting [5]), 8.1 µg/mL. In addition, the MIC with C. albicans HMV4C (setting [6]) was found to be 3.9 µg/mL; in the assay with C. albicans HMV4C (setting [7]), 26.4 µM; in the assay on C. albicans HMV4C (setting [8]), 12.7 µM. Besides, in the assay with Candida albicans, the “Loss … in 1.0% denture adhesive” value is recorded as “did not”.

For the molecule `CC[C@H](C)[C@@H]1NC(=O)[C@H](CO)NC(=O)[C@@H]2CCCN2C(=O)[C@H](C)NC(=O)CNC(=O)[C@H](CC(C)C)NC(=O)[C@H](CCCCN)NC(=O)[C@H](CCCCN)NC(=O)[C@H](CCSC)NC(=O)[C@H](CCCNC(=N)N)NC(=O)[C@H](Cc2c[nH]c3ccccc23)NC(=O)[C@H](CCC(N)=O)NC(=O)[C@H](Cc2c[nH]c3ccccc23)NC(=O)[C@H](CCCNC(=N)N)NC(=O)[C@H](CCCNC(=N)N)NC(=O)[C@@H](NC(=O)[C@H](CCCCN)NC(=O)[C@@H](N)Cc2ccccc2)CSSC[C@@H](C(=O)N[C@H](C(=O)N[C@@H](CCCNC(=N)N)C(=O)N[C@@H](CCCNC(=N)N)C(=O)N[C@@H](C)C(=O)N[C@@H](Cc2ccccc2)C(=O)O)C(C)C)NC(=O)[C@H]([C@@H](C)O)NC1=O` [Lactoferricin B], the “Activity in gels with 1.0% denture adhesive compared with gels without” value in the assay on C. albicans ATCC 64124 (radial diffusion) and in the assay on C. albicans HMV4C was “diminished activity” in each case. Besides, the “Loss … in 1.0% denture adhesive” value in the assay on Candida albicans is reported as “lost antimicrobial activity”.

With `C[C@@H]1[C@H](O)[C@@H](C)/C=C/C=C/CC/C=C/C=C/C=C/C=C/C(O[C@H]2O[C@H](C)[C@@H](O)[C@H](N)[C@@H]2O)CC2O[C@](O)(CC(O)C(O)CCC(O)CC(O)CC(O)CC(=O)O[C@H]1C)CC(O)C2C(=O)O` (stereo partly drawn) [Nystatin], the “Minimal inhibitory concentration (MIC)” value in the assay on C. albicans ATCC 64124 (setting [9]) is given as 61.0 (2.5) µg/mL; with C. albicans ATCC 64124 (setting [10]), 65.9 (2.7) µM; with C. albicans ATCC 64124 (setting [11]), 9.7 (0.2) µg/mL; with C. albicans ATCC 64124 (setting [12]), 10.5 (0.2) µM; in the assay on C. albicans HMV4C (setting [13]), 137.2 (8.2) µg/mL; with C. albicans HMV4C (setting [14]), 148.1 (8.9) µM. Also, the “Minimal inhibitory concentration (MIC)” value with C. albicans HMV4C (setting [15]) is 9.4 (0.2) µg/mL; in the assay on C. albicans HMV4C (No Adhesive), 10.2 (0.2) µM. For the same molecule, the “Activity in gels with 1.0% denture adhesive compared with gels without” value with C. albicans ATCC 64124 (radial diffusion) and in the assay with C. albicans HMV4C was “diminished” in each case. Besides, the “Loss … in 1.0% denture adhesive” value in the assay with Candida albicans is listed as “did not”.
